Like-named read-outs stand apart in the source and are kept apart here.
Assays:
[1] = system: corticosterone-treated mice; assay: forced swim test, single administration, corticosterone model; assay type: in vivo
Description: Mice were injected with corticosterone (s.c., 20 mg/kg) at random times during the light phase for consecutive 21 days (Fig. 1c). The dose and route of administration of corticosterone were based on studies performed by Zhao and colleagues. After the end of the procedure, next day 30 min before the test, corticosterone-treated mice were given (i.p.) saline, HBK-15 (1.25 mg/kg), fluoxetine (10 mg/kg), or ketamine (1 mg/kg) (Fig. 1c). Control mice received (i.p.) saline. The experimental groups consisted of eight randomly selected animals. We chose the dose of HBK-15 that was active in the chronic experiments (i.e., 1.25 mg/kg). The dose of ketamine was based on the studies performed by Pazini and colleagues. Animals were tested in the forced swim test and spontaneous locomotor activity test. After behavioral testing, mice were scarified and their hippocampi collected for biochemical analysis.
Forced swim test was performed according to the method described by Porsolt and colleagues and previously described. Mice were placed individually for 6 min in glass cylinders (height 25 cm, diameter 10 cm) containing […] (23–25 °C). The total time of immobility was recorded during the final 4 min of the test. The experiments were recorded and scored using aLab.io software by a trained observer blind to the treatments.

[2] = cited from earlier work; for effect on blood pressure after chronic treatment: antidepressant- and anxiolytic-like doses
[3] = biological target: serotonin 5-HT1A receptor; design: method as in PMID 26554929; details: previous experiments; read-out: 5-HT1A receptor antagonist IC50; cited from earlier work
[4] = distribution to brain after i.v. and i.p. administration; assay type: in vivo, mice; details: for Kp: brain and plasma, HBK-14 2.5 mg/kg, HBK-15 1.25 mg/kg, read-out: brain/plasma ratio
Description: For pharmacokinetic study, HBK-14 and HBK-15 dissolved in saline were administered by an intravenous (i.v.) and intraperitoneal (i.p.) administration at a dose of 2.5 and 1.25 mg/kg, respectively. Blood samples were collected at 0 min (predose), 5 min, 15 min, 30 min, 60 min, 120 min, and 240 min after compounds administration. The blood and brain samples were collected under general anesthesia induced by i.p. injections of 50 mg/kg ketamine plus 8 mg/kg xylazine. Blood samples were collected into heparinized tubes. The samples were immediately centrifuged at 3500 rpm for 10 min, and plasma was collected. The brain and plasma samples were immediately frozen at −80 °C for further analysis.
The quantification of studied compounds in plasma and brain samples was accomplished using UFLC Nexera system (Shimadzu, Kyoto, Japan) coupled to the triple quadrupole mass spectrometer QTrap 5500 (Sciex, Framingham, MA, USA) equipped with Turbo V™ ion source. After preparation, the samples were injected (5 μL) onto Acquity UPLC BEH C18 (3.0 × 100 mm, 1.7 μm, Waters, Milford, MA, USA) analytical column. The mobile phases that consisted of ACN with 0.1% FA (A) and water with 0.1% FA (B) were delivered in isocratic elution mode (40% A, 60% B) at the flow rate of 550 μL/min. The total time of analysis was 8 min including 2 min of column equilibration.
An amount of 50 μL of sample (plasma or brain homogenate) was transferred into the clean Eppendorf tube and spiked with 5 μL of internal standard solution (IS, 1 μg/mL) obtaining the final concentration of 100 ng/mL. After 5 min of mixing (1500 rpm), proteins were precipitated using 150 μL ACN. After 10 min of samples shaking (1500 rpm), the incubation step was performed (10 min, 4 °C). Next, samples were centrifuged (10,000 rpm, 10 min, 4 °C) and the supernatant was transferred into chromatographic vial for LC/MS/MS analysis.
The brain homogenate was prepared maintaining the tissue: phosphate-buffered saline (PBS) ratio at 1:5. The homogenization was carried out employing IKA® T10 Basic ULTRA-TURRAX disperser (IKA Werke GmbH & Co. KG, Staufen, Germany). After homogenization, all samples were centrifuged (3000 rpm, 10 min, 4 °C) and 50 μL of supernatant was collected for further preparation. All samples were stored on ice during the preparation process.

[5] = design: method as in unpublished results; details: ref unpublished results; cited from earlier work
[6] = biological target: T1, 5-HT3 receptors expressed in guinea pig ileum (Cavia porcellus, UniProt O70212); assay: guinea pig ileum contractions induced by serotonin; assay type: biochemical; details: for type of antagonism at 5-HT3 receptors: from depression of serotonin maximum; for Kd: functional affinity, double-reciprocal plot, read-out: 5-HT3 receptor pK B ± S.E.M (converted)
T1 construct: A segment (15 cm) of male guinea pig ileum was excised from the small intestine; from tissue; host or cells: isolated male guinea pig ileum segments in an organ bath
T1 sequence (O70212 20-490): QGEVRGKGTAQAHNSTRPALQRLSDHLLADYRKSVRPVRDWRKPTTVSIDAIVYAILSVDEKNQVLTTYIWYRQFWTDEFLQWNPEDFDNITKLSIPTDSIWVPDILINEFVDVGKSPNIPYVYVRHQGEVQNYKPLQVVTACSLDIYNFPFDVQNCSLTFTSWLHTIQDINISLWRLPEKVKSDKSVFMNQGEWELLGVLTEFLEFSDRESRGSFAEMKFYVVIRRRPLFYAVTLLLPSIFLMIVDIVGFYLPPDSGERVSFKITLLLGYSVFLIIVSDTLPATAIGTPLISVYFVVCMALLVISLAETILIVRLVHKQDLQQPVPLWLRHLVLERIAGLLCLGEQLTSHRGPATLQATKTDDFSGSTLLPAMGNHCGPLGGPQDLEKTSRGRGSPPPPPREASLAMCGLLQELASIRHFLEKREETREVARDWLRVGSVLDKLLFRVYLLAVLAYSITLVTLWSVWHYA

[7] = biological target: dopaminergic D2 receptors; design: method as in PMID 26554929; details: read-out: affinity for dopaminergic D2 receptors, Ki; cited from earlier work
[8] = cited from earlier work
D2 receptors = biological target: D2 receptors; design: method as in unpublished results; details: not measured here; ref unpublished results; read-out: D2 receptor antagonism IC50; cited from earlier work
[9] = cited from earlier work; remark: listed apart in the source
mice = details: scopolamine-induced deficits; cited from earlier work
[10] = biological target: serotonergic 5-HT2A receptors; design: method as in PMID 26554929; details: read-out: affinity for serotonergic 5-HT2A receptors, Ki; cited from earlier work
5-HT2A receptors = biological target: 5-HT2A receptors; design: method as in unpublished results; details: not measured here; ref unpublished results; read-out: 5-HT2A receptor antagonism IC50; cited from earlier work
[11] = mouse, other: intravenous and intraperitoneal (both arms), after i.v. and i.p. administration

| SMILES | increase in immobility vs control ([1]; acute experiment, corticosterone 20 mg/kg s.c. 21 days + saline) [%] | effect on blood pressure after chronic treatment [2] | hypotensive activity after single administration [2] | IC50 [3] [nM] | Kp ([4]; CD-1, mouse, ip) | Kp ([4]; CD-1, mouse, iv) | Tmax ([4]; CD-1, mouse, brain, ip, 1.25 mg/kg, read-out: time of maximal concentration in the brain (converted)) [min] | Kp [4, 11] | antipsychotic-like or cataleptogenic properties [5] | type of antagonism at 5-HT3 receptors [6] | Kd [6] [nM] | effect on corticosterone-induced increase in immobility ([1]; single 1.25 mg/kg i.p., 30 min before the test) | Ki [7] [nM] | cholinolytic activity [8] | IC50 (D2 receptors) [nM] | antihistaminic activity [9] | effect on memory (mice) | Ki [10] [nM] | IC50 (5-HT2A receptors) [nM] |
| --- | --- | --- | --- | --- | --- | --- | --- | --- | --- | --- | --- | --- | --- | --- | --- | --- | --- | --- | --- |
| C[C@]12C[C@H](O)[C@H]3[C@@H](CCC4=CC(=O)CC[C@@]43C)[C@@H]1CC[C@@H]2C(=O)CO [corticosterone] | 20 |  |  |  |  |  |  |  |  |  |  |  |  |  |  |  |  |  |  |
| COc1ccccc1N1CCN(CCOCCOc2c(C)cccc2Cl)CC1.Cl [HBK-15, 1-[(2-chloro-6-methylphenoxy)ethoxyethyl]-4-(2-methoxyphenyl)piperazine hydrochloride] |  | neither HBK-14 nor HBK-15 lowered blood pressure | did not exhibit hypotensive activity | 19 | 0.27 | 0.68 | 5 | < 1 | did not show antipsychotic-like or cataleptogenic properties | non-competitive interaction with 5-HT3 receptors | 43.6 | reversed an increase in immobility | 54 | negligible | 68 | negligible | showed memory-enhancing properties | 109 | 4460 |
| COc1ccccc1N1CCN(CCOCCOc2c(C)cccc2C)CC1.Cl [HBK-14, 1-[(2,6-Dimethylphenoxy)ethoxyethyl]-4-(2-methoxyphenyl)piperazine hydrochloride] |  | neither HBK-14 nor HBK-15 lowered blood pressure |  | 64 | 0.46 | 0.8 |  | < 1 |  | non-competitive antagonism | 11.2 |  |  | negligible |  | negligible |  |  |  |

Source: PMC5884906, “Single Administration of HBK-15—a Triple 5-HT1A, 5-HT7, and 5-HT3 Receptor Antagonist—Reverses Depressive-Like Behaviors in Mouse Model of Depression Induced by Corticosterone” (Molecular Neurobiology, 2017)
